Tested on: SARS-CoV2 original Wuhan strain, Alpha, Delta and Omicron viruses
Experiment: Replication of SARS-CoV-2 circulating forms in pulmonary A549-ACE2 cells
Assay type: cell-based
Settings: Severe acute respiratory syndrome coronavirus 2, read-out: IC50, block of viral replication of all variants

O=S(=O)(c1ccccc1)n1c(-c2cncc(-c3cc4cc(OCc5ccccc5)ccc4n3S(=O)(=O)c3ccccc3)c2)cc2cc(OCc3ccccc3)ccc21 [AB-00011778]
IC50: 500 to 1000 nM

Reference: patent US20260158015A1 (Universite De Bordeaux, priority 2021, published 2026)
